Test systems include HCC-2998 colon; A498 renal; SNB-19 CNS; MOLT-4 leukemia; UACC-257 melanoma; OVCAR-8 ovarian; SK-MEL-2 melanoma; RXF 393 renal; A549 NSCLC; SK-MEL-5 melanoma.
Assay in all cases: inhibition of tumour cell growth, NCI panel, 48 h

SMILES strings stand for the structures. Values joined by “and” are separate entries in the source; they are usually repeats but may differ in a detail not shown here. Equal values may be shown once.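 Test compounds were applied to cells in 96-well plates for 48 hours at 5 doses. GI50: concentration for 50% inhibition of growth. TGI: total growth inhibition.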 Some results are limits rather than exact numbers.

Regarding `Cc1ccc(-n2c3c(c4c(CN5CCOCC5)c(O)ccc42)CCc2ccccc2C3=O)cc1`, the GI50 was above 100 µM in the assay with HCC-2998 colon; above 100 µM in the assay on A498 renal; above 100 µM with SNB-19 CNS; 35.1 µM with MOLT-4 leukemia; above 100 µM in the assay on UACC-257 melanoma; 90.7 µM in the assay with OVCAR-8 ovarian. Besides, the GI50 with SK-MEL-2 melanoma is above 100 µM; in the assay with RXF 393 renal, 25.9 µM; in the assay on A549 NSCLC, 82.3 µM; with SK-MEL-5 melanoma, 76 µM. Moreover, the TGI in the assay on HCC-2998 colon, in the assay on A498 renal, in the assay with SNB-19 CNS, in the assay with MOLT-4 leukemia, in the assay with UACC-257 melanoma and in the assay on OVCAR-8 ovarian was above 100 µM each time. Moreover, the TGI in the assay on SK-MEL-2 melanoma, in the assay on RXF 393 renal, with A549 NSCLC and with SK-MEL-5 melanoma was above 100 µM each time.
As to `C=C(CNCCc1ccc(O)cc1)[C@@H]1CC[C@]2(CO)CC[C@]3(C)[C@H](CC[C@@H]4[C@@]5(C)CCC(N)C(C)(C)[C@@H]5CC[C@]43C)[C@@H]12` (some centres undefined), the GI50 with HCC-2998 colon is 1.66 µM; in the assay with A498 renal it was 1.44 µM; in the assay on SNB-19 CNS it was 1.22 µM; in the assay with UACC-257 melanoma it was 0.195 µM; in the assay with OVCAR-8 ovarian, 0.0235 µM; in the assay on SK-MEL-2 melanoma it was 1.79 µM. The GI50 in the assay with RXF 393 renal was 1.08 µM; with A549 NSCLC it was 1.66 µM; in the assay with SK-MEL-5 melanoma, 1.69 µM. Moreover, the TGI in the assay on HCC-2998 colon amounted to 3.3 µM; with A498 renal it was 2.79 µM; in the assay on SNB-19 CNS, 2.53 µM; with UACC-257 melanoma it was 0.517 µM; in the assay on OVCAR-8 ovarian it was 1.39 µM; in the assay with SK-MEL-2 melanoma, 3.4 µM. Further, the values for the TGI in the assay on RXF 393 renal, with A549 NSCLC and in the assay on SK-MEL-5 melanoma were 2.36 µM, 3.13 µM and 3.09 µM, respectively.
For `C=CC1=CC(C)C[C@]1(O)C(=O)OC` (some centres undefined), the GI50 with HCC-2998 colon, in the assay on A498 renal, with SNB-19 CNS, in the assay with MOLT-4 leukemia, in the assay with UACC-257 melanoma and in the assay with OVCAR-8 ovarian was above 100 µM throughout. Moreover, the GI50 in the assay on SK-MEL-2 melanoma, in the assay with RXF 393 renal and in the assay on A549 NSCLC was above 100 µM in each case. The compound also displayed a TGI in the assay with SK-MEL-5 melanoma above 100 µM.
As for `Cc1nnc(N=Nc2c(O)[nH]c3ccccc23)n1N`, the TGI in the assay on HCC-2998 colon, in the assay with A498 renal, with SNB-19 CNS, in the assay on MOLT-4 leukemia, in the assay on UACC-257 melanoma and in the assay on OVCAR-8 ovarian was above 100 µM in each case. Further, the TGI in the assay on SK-MEL-2 melanoma, in the assay with RXF 393 renal, in the assay with A549 NSCLC and with SK-MEL-5 melanoma was above 100 µM in each case.
Take `CC1=C(C(=O)CC(=O)C(=O)NC2C3CC4CC(C3)CC2C4)Sc2ccccc2N1` (centres undefined): the TGI with HCC-2998 colon, in the assay on A498 renal, in the assay with SNB-19 CNS, in the assay on UACC-257 melanoma, in the assay with OVCAR-8 ovarian and in the assay on SK-MEL-2 melanoma was above 100 µM in each case. The TGI in the assay with RXF 393 renal, in the assay on A549 NSCLC and with SK-MEL-5 melanoma was above 100 µM each time.
Consider `COc1ccc2[nH]c(-c3ccccc3)cc2c1`, for which the GI50 with HCC-2998 colon was above 100 µM; in the assay with A498 renal, 20.8 µM; in the assay on SNB-19 CNS, above 100 µM; in the assay on MOLT-4 leukemia it was above 100 µM; in the assay with UACC-257 melanoma it was above 100 µM; with OVCAR-8 ovarian, above 100 µM. The GI50 in the assay with SK-MEL-2 melanoma is above 100 µM; in the assay with RXF 393 renal it was above 100 µM; in the assay on A549 NSCLC it was above 100 µM; with SK-MEL-5 melanoma it was 86.6 µM. Moreover, the TGI in the assay with HCC-2998 colon, in the assay on A498 renal, in the assay with SNB-19 CNS, in the assay with MOLT-4 leukemia, in the assay on UACC-257 melanoma and with OVCAR-8 ovarian was above 100 µM throughout. For the same compound, the TGI in the assay on SK-MEL-2 melanoma, in the assay with RXF 393 renal, in the assay with A549 NSCLC and in the assay with SK-MEL-5 melanoma was above 100 µM each time.
Take `O=c1oc2ccc(F)cc2c(=O)n1-c1ccc(Br)cc1F`: the GI50 was 2.9 µM with HCC-2998 colon; 0.184 µM with A498 renal; 0.45 µM in the assay with SNB-19 CNS; 0.528 µM in the assay on UACC-257 melanoma; 1.59 µM with OVCAR-8 ovarian; 0.46 µM with SK-MEL-2 melanoma. The GI50 with RXF 393 renal was 0.923 µM; with A549 NSCLC, 2.29 µM; in the assay on SK-MEL-5 melanoma, 0.267 µM. The TGI in the assay with HCC-2998 colon is 10.8 µM; with A498 renal, 0.72 µM; in the assay with SNB-19 CNS, above 80.8 µM; with UACC-257 melanoma, 7.37 µM; in the assay with OVCAR-8 ovarian, above 100 µM; with SK-MEL-2 melanoma, 3.98 µM. For the same compound, the figures for the TGI with RXF 393 renal, with A549 NSCLC and in the assay with SK-MEL-5 melanoma were 4.66 µM, above 100 µM and 0.737 µM, respectively.
For `CC[C@@]1(O)C(=O)OCc2c1cc1n(c2=O)Cc2cc3c(N)cccc3nc2-1`, the GI50 with HCC-2998 colon is 0.0239 µM; in the assay on A498 renal it was 0.0896 µM; in the assay with MOLT-4 leukemia it was 0.00295 µM; with OVCAR-8 ovarian it was 0.0403 µM; in the assay with RXF 393 renal it was 0.0893 µM; with A549 NSCLC, 0.0701 µM. The GI50 in the assay with SK-MEL-5 melanoma was 0.0214 µM. Also, the TGI with HCC-2998 colon is 1.39 µM; in the assay with A498 renal, 0.611 µM; with SNB-19 CNS it was 6.05 µM; with MOLT-4 leukemia, 0.0605 µM and 0.0649 µM; in the assay on UACC-257 melanoma, 2.99 µM; in the assay with OVCAR-8 ovarian it was 2.51 µM. In addition, the TGI is 1.99 µM with SK-MEL-2 melanoma, 0.34 µM with RXF 393 renal, 2.31 µM in the assay on A549 NSCLC and 0.0806 µM in the assay on SK-MEL-5 melanoma.
Take `O=C(/C=C/c1cn(-c2ccccc2)nc1-c1ccc([N+](=O)[O-])cc1)c1ccc(Cl)cc1`: the GI50 is above 100 µM in the assay on HCC-2998 colon; 4.99 µM in the assay with A498 renal; 4.12 µM with SNB-19 CNS; 1.27 µM in the assay on MOLT-4 leukemia; above 100 µM with UACC-257 melanoma; 6.33 µM in the assay with OVCAR-8 ovarian. Further, the results for the GI50 with SK-MEL-2 melanoma and in the assay on RXF 393 renal were 5.03 µM and 1.92 µM, respectively. In addition, the TGI with HCC-2998 colon is above 100 µM; in the assay on A498 renal, above 100 µM; in the assay on SNB-19 CNS, 27 µM; with MOLT-4 leukemia it was above 100 µM; in the assay with UACC-257 melanoma it was above 100 µM; in the assay with OVCAR-8 ovarian, above 100 µM. The TGI in the assay on SK-MEL-2 melanoma was 23 µM; in the assay with RXF 393 renal, 5.19 µM; in the assay with SK-MEL-5 melanoma, above 100 µM.

For the origin of these results see PubChem BioAssay (NCI).
